Test results: article PMC3875237, “Fragment-based design for the development of N-domain-selective angiotensin-1-converting enzyme inhibitors” (Clinical Science (London, England : 1979), 2013)
Where two headings read alike, the source gives them in different places.

Columns and labels:
[1] = molecular target: T1, ACE N-domain mutant R381E (Homo sapiens, UniProt P12821, R410E); test: continuous fluorogenic (Abz)-FRK(Dnp)P-OH ACE inhibition assay, N-domain S2 mutant R381E; type: biochemical
T1 construct: N-domain S2 mutants Y369F, R381E and YR/FE
Method: (§1) Parent molecule RXP407 and compound 33RE were dissolved in sterile distilled water to yield stock solutions of 10 mM and subsequently serially diluted in assay buffer (50 mM Hepes, pH 6.8, 200 mM NaCl and 10 μM ZnSO4). Assays were performed on wild-type N-domain, C-domain and N-domain S2 mutants Y369F, R381E and YR/FE as described previously. Briefly, 40 nM enzyme was incubated with an equivolume amount of an appropriate concentration range of phosphinic inhibitor at ambient temperature for 5 min. Enzyme-inhibitor solutions were then divided into aliquotes in triplicate 20 μl volumes followed by the addition of 280 μl of fluorogenic substrate (Abz)-FRK(Dnp)P-OH (in assay buffer) to yield a final substrate concentration of 4 or 8 μM. Residual enzyme activity was monitored continuously at λex=320 nm and λem=420 nm using a fluorescence spectrophotometer (Cary Eclipse, Varian). Initial change of fluorescence over time was converted into arbitrary rate units and inhibitor-binding affinities determined using the Dixon method.
(§2) Assessment of inhibitor potential was carried out using a continuous fluorogenic assay (Abz)-FRK(Dnp)P assay.

[2] = molecular target: T2, ACE N-domain double mutant YR/FE (Homo sapiens, UniProt P12821, R410E/Y398F); test: continuous fluorogenic (Abz)-FRK(Dnp)P-OH ACE inhibition assay, N-domain S2 double mutant YR/FE; type: biochemical
T2 construct: N-domain S2 mutants Y369F, R381E and YR/FE
Method: as §1, §2

[3] = molecular target: T3, ACE N-domain (wild-type) (Homo sapiens, UniProt P12821); test: continuous fluorogenic (Abz)-FRK(Dnp)P-OH ACE inhibition assay, wild-type N-domain; type: biochemical; conditions: for Fold selectivity Ki (C/N): C-domain Ki / wild-type N-domain Ki
T3 construct: Assays were performed on wild-type N-domain, C-domain and N-domain S2 mutants; made in house; host or cells: CHO (Chinese-hamster ovary) cells
Method: as §1, §2

[4] = molecular target: T4, ACE N-domain mutant Y369F (Homo sapiens, UniProt P12821, Y398F); test: continuous fluorogenic (Abz)-FRK(Dnp)P-OH ACE inhibition assay, N-domain S2 mutant Y369F; type: biochemical
T4 construct: N-domain S2 mutants Y369F, R381E and YR/FE
Method: as §1, §2

[5] = molecular target: T3, ACE N-domain (wild-type); design: method as in PMID 10200262; conditions: N-domain over C-domain; cited from earlier work

T3 sequence (P12821 40-624 limits assumed): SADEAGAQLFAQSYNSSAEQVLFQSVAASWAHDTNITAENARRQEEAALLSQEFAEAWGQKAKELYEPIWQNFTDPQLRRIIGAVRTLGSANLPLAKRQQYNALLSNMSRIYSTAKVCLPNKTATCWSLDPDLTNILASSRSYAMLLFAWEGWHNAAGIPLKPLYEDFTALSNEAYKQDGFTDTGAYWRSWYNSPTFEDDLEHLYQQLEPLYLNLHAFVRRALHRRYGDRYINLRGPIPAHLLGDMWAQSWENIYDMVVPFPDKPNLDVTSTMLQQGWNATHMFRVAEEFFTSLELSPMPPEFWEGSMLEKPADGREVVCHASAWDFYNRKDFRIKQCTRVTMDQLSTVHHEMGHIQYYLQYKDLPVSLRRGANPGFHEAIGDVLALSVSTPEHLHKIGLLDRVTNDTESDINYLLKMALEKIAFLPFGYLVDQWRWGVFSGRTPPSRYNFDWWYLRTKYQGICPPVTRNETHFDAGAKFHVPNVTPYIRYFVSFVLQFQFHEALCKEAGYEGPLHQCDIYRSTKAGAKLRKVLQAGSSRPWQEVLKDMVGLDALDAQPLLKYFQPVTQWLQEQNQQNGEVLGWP
T2 sequence (P12821 40-624 Y398F/R410E): as the sequence (P12821 40-624 limits assumed) above, with Y359F, R371E counted along it
T1 sequence (P12821 40-624 R410E): as the sequence (P12821 40-624 limits assumed) above, with R371E counted along it
T4 sequence (P12821 40-624 Y398F): as the sequence (P12821 40-624 limits assumed) above, with Y359F counted along it

SMILES	Fold selectivity Ki (C/N) ([1]; C-domain Ki / R381E mutant Ki) [fold]	Ki ([1]; N-domain mutant R381E, means±S.E.M.) [nM]	decrease in binding affinity compared with wild-type ([1]; R381E vs wild-type N-domain) [fold]	Fold selectivity Ki (C/N) ([2]; C-domain Ki / YR/FE mutant Ki) [fold]	Ki ([2]; N-domain double mutant YR/FE, means±S.E.M.) [nM]	decrease in binding affinity compared with wild-type ([2]; YR/FE vs wild-type N-domain) [fold]	Ki [3] [nM]	Fold selectivity Ki (C/N) [3] [fold]	Fold selectivity Ki (C/N) ([4]; C-domain Ki / Y369F mutant Ki) [fold]	Ki ([4]; N-domain mutant Y369F, means±S.E.M.) [nM]	decrease in binding affinity compared with wild-type ([4]; Y369F vs wild-type N-domain) [fold]	N-selectivity [5]	Ki ([3]; wild-type N-domain, Dixon method, means±S.E.M., read-out: Ki) [nM]
C[C@H](CP(=O)(O)[C@H](Cc1ccccc1)NC(=O)[C@@H](N)Cc1nnn[nH]1)C(=O)N[C@H](C)C(N)=O [33RE]	120	87 ± 6.29	8	4	2790 ± 156	250	11.2 ± 0.74	927	26	404 ± 17.3	36	–	–
CC(=O)NC(CC(=O)O)C(=O)NC(Cc1ccccc1)P(=O)(O)CC(C)C(=O)NC(C)C(N)=O (centres unmarked) [RXP407, reference compound]	–	–	–	–	–	–	–	2896	–	–	–	approximately three orders of magnitude	21 ± 0.27
